Assay results as given in patent publication US8466089B2, “Pyrazole compounds, process for their production and herbicides containing them” (Ishihara Sangyo Kaisha, Ltd., priority 2008, dated 2013).
Read-outs that look alike come from different tables or passages of the source.

Key:
Type in all cases: in vivo
[1] = test system: prickly sida (Sida spinosa L.); assay: Test Example 1, foliar treatment in upland pots; conditions: 20th to 22nd day after application, visual, read-out: Growth inhibition rate (%) Prickly sida
[2] = test system: soybean (Glycine max Merr.); assay: Test Example 1, foliar treatment in upland pots; conditions: 20th to 22nd day after application, visual, read-out: Growth inhibition rate (%) Soybean
Outline: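 Visual growth inhibition, 0% = untreated to 100% = complete kill, read on day 20–22 post-spray. Post-emergence foliar application of formulated compound in 500 L/ha water plus 0.1 vol% spreader; leaf stages: corn 2.0–3.3, rice 1.2–2.5, foxtail 1.5–3.0, soybean primary leaf–0.3.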

[3] = test system: wheat (Triticum spp.); assay: Test Example 1, foliar treatment in upland pots; conditions: 20th to 22nd day after application, visual, read-out: Growth inhibition rate (%) Wheat
[4] = test system: Japanese bulrush (Scirpus juncoides); assay: Test Example 3, paddy field pot, application to irrigated water; conditions: Schoenoplectiella juncoides, applied at 0.5 leaf stage, 13th to 17th day after application, read-out: Growth inhibition rate (%) Japanese bulrush
Description: (§1) Paddy field soil was put into a 1/1,000,000 hectare pot, and seeds of barnyardgrass (Echinochloa oryzicola vasing.) and Japanese bulrush (Scirpus juncoides) were sown and lightly covered with soil. Then, pot was left to stand in a greenhouse in a state irrigated to a water depth of from 0.5 to 1 cm, and next day or two days later, tubers of Japanese ribbon waparo (Sagittaria pygmaea) were planted. Then, the irrigated water depth was maintained to be from 3 to 4 cm, and when barnyardgrass and Japanese bulrush reached 0.5 leaf stage, and Japanese ribbon waparo reached primary leaf stage, a water diluted solution of a wettable powder or an emulsifiable concentrate of the compound of the present invention prepared in accordance with a conventional preparation method, was uniformly dropwise applied by a pipette so that the amount of active ingredients would be a prescribed amount. Further, paddy field soil was put into a 1/1,000,000 pot, followed by soil puddling to an irrigated water depth of from 3 to 4 cm. Next day, rice (Oryza sativa L.) (var.: Nihonbare) of two leaf stage was transplanted in a transplantation depth of 3 cm. On the 4th day after transplantation, the compound of the present invention was applied in the same manner as described above.
(§2) On the 13th to 17th day after application, the state of growth of barnyardgrass, Japanese bulrush and Japanese ribbon waparo was visually observed, and on the 20th to 23rd day after application, the state of growth of rice was visually observed, and the herbicidal effect was evaluated by a growth inhibition rate (%) of 0 (equivalent to the non-treated area) to 100% (complete kill).

[5] = test system: Japanese ribbon waparo (Sagittaria pygmaea); assay: as above; conditions: applied at primary leaf stage, 13th to 17th day after application, read-out: Growth inhibition rate (%) Japanese ribbon waparo
Description: as §1, §2

[6] = test system: barnyardgrass (Echinochloa oryzicola vasing.); assay: as above; conditions: applied at 0.5 leaf stage, 13th to 17th day after application, read-out: Growth inhibition rate (%) barnyard grass
Description: as §1, §2

[7] = test system: rice (Oryza sativa L.) (var.: Nihonbare); assay: Test Example 3, paddy field pot, transplanted rice; conditions: applied 4th day after transplantation, 20th to 23rd day after application, read-out: Growth inhibition rate (%) Rice
Description: as §1, §2

[8] = test system: sorgo (Sorghum bicolor Moench) (var.: Lucky Sorgo); assay: Test Example 6, soil column downward movement, sorgo bioassay; conditions: 14th day after sowing
Procedure: Soil (sterilized soil:sand=3:1) was packed (4 L) into a column (9.5 cm in diameter×40 cm in height, application area: 0.007 m^2), and tap water was dropped from above by a Peristaltic pump before application of the herbicide for the purpose of maintaining the soil moisture to be uniform. Then, 10 mL of a spray solution prepared so that each agent (Compound No. 2-1, the above Reference Compounds 1 and 2) would be at a concentration corresponding to 250 g/ha was dropwise applied by a pipette. After application, water was dropped again at a rate of 400 mL/hr for about 3 hours by means of a Peristaltic pump. After the dropping, the column was left to stand for 1 day, and then the column was vertically evenly divided and seeds of sorgo (Sorghum bicolor Moench) (var.: Lucky Sorgo) were sown in a row. On the 14th day after sowing, the state of growth of the plant was visually observed at 3 cm intervals from the application point of the agent, whereby the germination and the degree of growth were evaluated by a growth inhibition rate (%) of 0 (equivalent to the non-treated area) to 100% (complete kill) to obtain the results in Table 17.
From the above results, the growth inhibition rates of Reference Compounds No. 1 and No. 2 are observed in depths deeper than that of Compound No. 2-1. […] Whereas, Compound No. 2-1 stayed at a shallow portion of soil (in a layer of from 0 to 9 cm).

Row | Structure (SMILES) | inhibition at 7 g/ha [1] | inhibition at 7 g/ha [2] | inhibition at 7 g/ha [3] | inhibition at 63 g/ha [4] | inhibition at 63 g/ha [5] | inhibition at 63 g/ha [6] | inhibition at 63 g/ha [7] | inhibition at 250 g/ha ([8]; depth 0-3 cm, read-out: Growth inhibition rate (%) against sorgo, Depth (cm) from the applied surface 0-3) | inhibition at 250 g/ha ([8]; depth 3-6 cm, read-out: Growth inhibition rate (%) against sorgo, Depth (cm) from the applied surface 3-6) | inhibition at 250 g/ha ([8]; depth 6-9 cm, read-out: Growth inhibition rate (%) against sorgo, Depth (cm) from the applied surface 6-9) | inhibition at 250 g/ha ([8]; depth 9-12 cm, read-out: Growth inhibition rate (%) against sorgo, Depth (cm) from the applied surface 9-12) | inhibition at 250 g/ha ([8]; depth 12-15 cm, read-out: Growth inhibition rate (%) against sorgo, Depth (cm) from the applied surface 12-15) | inhibition at 250 g/ha ([8]; depth 15-18 cm, read-out: Growth inhibition rate (%) against sorgo, Depth (cm) from the applied surface 15-18) | inhibition at 250 g/ha ([8]; depth 18-21 cm, read-out: Growth inhibition rate (%) against sorgo, Depth (cm) from the applied surface 18-21) | inhibition at 250 g/ha ([8]; depth 21-24 cm, read-out: Growth inhibition rate (%) against sorgo, Depth (cm) from the applied surface 21-24) | inhibition at 250 g/ha ([8]; depth 24-27 cm, read-out: Growth inhibition rate (%) against sorgo, Depth (cm) from the applied surface 24-27) | inhibition at 250 g/ha ([8]; depth 27-30 cm, read-out: Growth inhibition rate (%) against sorgo, Depth (cm) from the applied surface 27-30)
1 | COCCOc1c(S(C)(=O)=O)ccc(C(=O)c2cnn(C(C)C)c2O)c1C [Compound No. 8-1, (5-Hydroxy-1-isopropyl-1H-pyrazol-4-yl)(3-(2-methoxyethoxy)-2-methyl-4-(methylsulfonyl)phenyl)ketone] | 30% | 40% | 0% | 95% | 95% | 95% | 60% | – | – | – | – | – | – | – | – | – | –
2 | CCc1nn(C)c(O)c1C(=O)c1ccc(S(C)(=O)=O)c(OCCOC)c1C [Compound No. 5-3, (5-Hydroxy-1-methyl-3-ethyl-1H-pyrazol-4-yl)(3-(2-methoxyethoxy)-2-methyl-4-(methylsulfonyl)phenyl)ketone] | 30% | 0% | – | 50% | 50% | 60% | 20% | – | – | – | – | – | – | – | – | – | –
3 | CCCn1ncc(C(=O)c2ccc(S(C)(=O)=O)c(OCCOC)c2C)c1OC(C)OC(=O)OCC (stereo not drawn) [Compound No. 3-1, Ethyl 1-(1-n-propyl-4-(3-(2-methoxyethoxy)-2-methyl-4-(methylsulfonyl)benzoyl)-1H-pyrazol-5-yloxy)ethyl carbonate] | 0% | – | 0% | 90% | 95% | 100% | 30% | – | – | – | – | – | – | – | – | – | –
4 | COC(=O)OC(C)Oc1c(C(=O)c2ccc(S(C)(=O)=O)c(C(=O)OC)c2C)cnn1C (stereo not drawn) [Compound No. 1-2, Methyl 3-(5-(1-(methoxycarbonyloxy)ethoxy)-1-methyl-1H-pyrazole-4-carbonyl)-2-methyl-6-(methylsulfonyl)benzoate] | – | 95% | 0% | 70% | 95% | 100% | 40% | – | – | – | – | – | – | – | – | – | –
5 | CCn1nc(C)c(C(=O)c2ccc(S(C)(=O)=O)c(OCCOC)c2C)c1O [Compound No. 6-1, (1-Ethyl-5-hydroxy-3-methyl-1H-pyrazol-4-yl)(3-(2-methoxyethoxy)-2-methyl-4-(methylsulfonyl)phenyl)ketone] | 0% | – | 0% | 80% | 60% | 60% | 40% | – | – | – | – | – | – | – | – | – | –
6 | CCOC(=O)OC(C)Oc1c(C(=O)c2ccc(S(C)(=O)=O)c(OCCOC(C)C)c2C)cnn1C (stereo not drawn) [Compound No. 1-5, Ethyl 1-(4-(3-(2-isopropoxyethoxy)-2-methyl-4-(methylsulfonyl)benzoyl)-1-methyl-1H-pyrazol-5-yloxy)ethyl carbonate] | 0% | – | 0% | 20% | 90% | 100% | 30% | – | – | – | – | – | – | – | – | – | –
7 | Cc1c(C(=O)c2cnn(C)c2O)ccc(S(C)(=O)=O)c1OCCC(C)C [Compound No. 5-1, (5-Hydroxy-1-methyl-1H-pyrazol-4-yl)(3-(2-isopropylethoxy)-2-methyl-4-(methylsulfonyl)phenyl)ketone] | 40% | – | 0% | 20% | 95% | 60% | 30% | – | – | – | – | – | – | – | – | – | –
8 | COCCOc1c(S(C)(=O)=O)ccc(C(=O)c2c(C)nn(C)c2OC(C)OC(=O)OC)c1C (stereo not drawn) [Compound No. 1-6, 1-(4-(3-(2-Methoxyethoxy)-2-methyl-4-(methylsulfonyl)benzoyl)-1,3-dimethyl-1H-pyrazol-5-yloxy)ethyl methyl carbonate] | 70% | 80% | 0% | 70% | 60% | 100% | 30% | – | – | – | – | – | – | – | – | – | –
9 | CCn1ncc(C(=O)c2ccc(S(C)(=O)=O)c(OCCOC)c2C)c1OC(C)OC(=O)OC (stereo not drawn) [Compound No. 2-1, 1-(1-Ethyl-4-(3-(2-methoxyethoxy)-2-methyl-4-(methylsulfonyl)benzoyl)-1H-pyrazol-5-yloxy)ethyl methyl carbonate] | 60% | 95% | 0% | 80% | 80% | 100% | 20% | 70% | 19% | 10% | 5% | 3% | 3% | 2% | 1% | 0% | 0%
10 | COCCOc1c(S(C)(=O)=O)ccc(C(=O)c2cnn(C(C)C)c2OC(C)OC(=O)OC)c1C (stereo not drawn) [Compound No. 4-1, 1-(1-Isopropyl-4-(3-(2-methoxyethoxy)-2-methyl-4-(methylsulfonyl)benzoyl)-1H-pyrazol-5-yloxy)ethyl methyl carbonate] | 60% | 95% | 0% | 98% | 70% | 100% | 40% | – | – | – | – | – | – | – | – | – | –
11 | CCCn1ncc(C(=O)c2ccc(S(C)(=O)=O)c(OCCOC)c2C)c1O [Compound No. 7-1, (5-Hydroxy-1-n-propyl-1H-pyrazol-4-yl)(3-(2-methoxyethoxy)-2-methyl-4-(methylsulfonyl)phenyl)ketone] | 20% | 60% | 0% | 70% | 90% | 30% | 20% | – | – | – | – | – | – | – | – | – | –
12 | COCCOc1c(S(C)(=O)=O)ccc(C(=O)c2c(C)nn(C)c2O)c1C [Compound No. 5-2, (5-Hydroxy-1,3-dimethyl-1H-pyrazol-4-yl)(3-(2-methoxyethoxy)-2-methyl-4-(methylsulfonyl)phenyl)ketone] | 40% | 70% | – | 70% | 80% | 80% | 20% | – | – | – | – | – | – | – | – | – | –
